Entries after “also recorded” stand apart in the source; their conditions may differ.
Experiments:
[1] = target: T1, 5HT3A receptors (Mus musculus, UniProt P23979); assay: FRET functional assay (agonist/antagonist) using LGIC-CNiFERs; format: cell-based; details: for EC50: * partial agonist, read-out: Agonist EC50 ± SD, 5HT3A; for Functional properties at 5HT3A receptors (agonist / antagonist, type): functional screening and characterization
T1 construct: expressed in transfected cells; host or cells: HEK293 cells co-expressing TN-XXL
T1 sequence (P23979 24-489): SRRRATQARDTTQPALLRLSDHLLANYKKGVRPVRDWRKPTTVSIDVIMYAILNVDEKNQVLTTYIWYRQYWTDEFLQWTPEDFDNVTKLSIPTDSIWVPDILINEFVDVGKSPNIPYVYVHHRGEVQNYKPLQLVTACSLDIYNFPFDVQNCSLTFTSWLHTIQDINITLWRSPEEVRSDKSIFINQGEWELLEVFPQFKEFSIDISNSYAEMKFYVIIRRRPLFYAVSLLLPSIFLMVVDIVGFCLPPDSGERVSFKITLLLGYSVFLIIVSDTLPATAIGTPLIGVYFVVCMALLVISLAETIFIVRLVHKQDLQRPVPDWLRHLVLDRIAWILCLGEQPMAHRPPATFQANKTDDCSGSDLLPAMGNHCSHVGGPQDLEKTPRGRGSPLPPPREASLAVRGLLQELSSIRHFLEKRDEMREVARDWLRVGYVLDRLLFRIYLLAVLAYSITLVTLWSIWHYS

[2] = tested on: physiologically induced amnesia mice; assay: ORT time delay with MLA pretreatment (mechanism of action); format: in vivo; details: MLA 3 mg/kg 5 min before test compound 10 μmol/kg
Description: Methyllycaconitine (MLA) was injected to block the α7-nAChR agonist response. The ORT in natural memory loss mice described above was the study model. […] Each mouse was allowed to explore an open field apparatus for 5 min in a habituation phase. After 24 hours, MLA (3 mg/kg) was injected 5 min before injection of test compounds. After 1 h of injected test compounds, each mouse explored 2 identical objects in the sample phase for 5 min. On the next day, one of the objects was changed to a new one and the mouse was allowed to explore these objects for 5 min. The exploration time of these objects was recorded.
FIG. 30 illustrates discrimination index (TN−TF/TN+TF) of each compound in the test phase of ORT for proving mechanism of action.
For dose finding protocol, the mice were randomly divided into different treatment groups, a control group receiving a vehicle and tested groups receiving PNU-282987 at 3, 10 mg/kg, and IND8, QND8 for 10, 25 μmol/kg, single dose. They were allowed to freely explore the open field apparatus for 5 min for habituation in a day before the experiment (day 1). On the test day (day 2), the test compound was injected 1 h before the sample phase. In this phase, mice were placed in the apparatus to explore two identical objects. On the next day (day 3), one object was changed to a new one and mice were allowed to explore these objects for 5 min in the test phase. […] The exploration time of each object was recorded if the nose of mouse came within 3 cm or touched the objects. The discrimination index (DI) was calculated by using (TN−TF)/(TN+TF); TN and TF represented exploration time of new and familiar objects, respectively.

[3] = tested on: mice; assay: Locomotor activity test (Y-maze); format: in vivo; details: all tested doses, i.p., 1 h before
Description: A black polyvinyl chloride Y-maze, which was 40 cm long, 3 cm wide at the bottom and 10 cm wide at the top, and 12 cm high in each arm, was used to study the effect of synthesized compounds on locomotor activity. Each mouse was placed at the end of one arm and was allowed to move freely in Y-maze for 8 min after 1 h injection of vehicle or test compounds. The number of entries to all arms was recorded visually if mice accessed into each arm at least 10 cm from the middle of the maze.
Figure S1. Locomotor activity testing of IND8 (A) and QND8 (B). Mice were injected vehicle or test compounds 1 h before moving freely in Y-maze for 8 min. The number of entries into 3 arms was recorded. The one-way ANOVA was used to evaluate the different result between test and vehicle groups.

[4] = >10 = did not pass initial screen

Compound	EC50 [1, 4]	Functional properties at 5HT3A receptors (agonist / antagonist, type) [1]	Cognitive enhancement after MLA pretreatment, ORT time delay [2]	Locomotor activity (number of arm entries) vs vehicle [3]	Kd ([1]; Antagonist KA ± SD, 5HT3A, competitive antagonist (^C), >10 = did not pass initial screen, vs 5-HT)	5HT3A agonistic properties relative to α7-nAChR agonistic effect [1]
Oc1ccc(-c2cn(C3CN4CCC3CC4)nn2)cc1 (centres unmarked) [QND8, 3-(4-hydroxyphenyl-1,2,3-triazol-1-yl) quinuclidine]	0.9 ± 0.09 µM	5HT3A receptor agonist properties	complete abolition of the cognitive enhancement; also recorded: abolished by MLA	neither a reduction nor an increase in locomotor activity was observed; also recorded: no significant difference	–	–
O=C(N[C@H]1CN2CCC1CC2)c1ccc(Cl)cc1 [PNU-282987, reference compound]	–	–	abolished by MLA	–	1.2 µM	–
c1cc2cc(-c3cn(C4CN5CCC4CC5)nn3)ccc2[nH]1 (centres unmarked) [IND8, 5-((Quinuclid-3-yl)-1H-1,2,3-triazol-4-yl)-1H-indole]	0.21 µM	agonistic properties; also recorded: partial agonist	complete abolition of the cognitive enhancement; also recorded: abolished by MLA	neither a reduction nor an increase in locomotor activity was observed; also recorded: no significant difference	–	seven fold lower

Source: patent publication US20180244653A1, “SELECTIVE ALPHA-7 NICOTINIC RECEPTOR AGONISTS AND METHODS FOR MAKING AND USING THEM” (THE REGENTS OF THE UNIVERSITY OF CALIFORNIA, priority 2015, published 2018)
